# In patent publication US10676443B2, “Method for producing (4S)-4-[4-cyano-2-(methylsulfonyl)phenyl]-3,6-dimethyl-2-oxo-1-[3-(trifluoromethyl)phenyl]-1,2,3,4-tetrahydro pyrimidine-5-carbonitrile” (pH Pharma Co., Ltd., priority 2015, dated 2020):
# Assay: stability of crystal form (A) on storage, even at high humidity
# Type: physicochemical
# Conditions: solid crystal form (A)
compound,measurement,setting,value
"CC1=C(C#N)[C@@H](c2ccc(C#N)cc2S(C)(=O)=O)N(C)C(=O)N1c1cccc(C(F)(F)F)c1 [crystal form (A), (S)-4-[4-cyano-2-(methylsulfonyl)phenyl]-3,6-dimethyl-2-oxo-1-[3-(trifluoromethyl)phenyl]-1,2,3,4-tetrahydropyrimidine-5-carbonitrile]",stability properties,even at high humidity,very good
same,storage time with no loss of stability,storage,more than 3 years
